Results on 3 molecules are retold here after US7026356B2, “Fatty acid analogues for the treatment of diseases caused by the pathological proliferation of smooth muscle cells” (priority 1998, dated 2006).

The nature of series [1]: Local administration of radiolabelled TTA, presence in coronary arteries. It is filed as in vivo. The settings on record: administered locally in two extra pigs; after 4 and 6 weeks.
Series [2] relates to strains of Escherichia coli. Kind of series: Tests for mutagenic activity in bacterial strains. The class given is cell-based. The following applies: E. coli; 3–1000 mg/plate (TTA), 2–5000 mg/plate (TSA). The text has this: (§1) Tests for mutagenic activity have been performed by Covance Laboratories Limited, England. […] Furthermore, TTA was not mutagenic when tested in mouse lymphoma cells […] L5178Y.

For series [3], the system named is strains of Salmonella typhimurium. Kind of series: Tests for mutagenic activity in bacterial strains. It is filed as cell-based. The settings on record: S. typhimurium; 3–1000 mg/plate (TTA), 2–5000 mg/plate (TSA).
Source text: as §1

Series [4] is described as follows: Plasma lipid lowering on feeding moderate doses to animals. The class given is in vivo, rats, mice, rabbits and dogs. The settings on record: for potency in lowering plasma triacylglycerols and cholesterol: compared with polyunsaturated fatty acids like EPA. An excerpt:
(§2) Feeding moderate doses of TTA to animals like rats, mice, rabbits and dogs decreased both plasma cholesterol and triacylglycerol levels within days of treatment.

The subject of series [5] is cultured Chinese hamster ovary cells. Kind of series: Chromosomal aberrations in cultured Chinese hamster ovary cells. It is filed as cell-based. The settings on record: CHO cells, doses tested 12–140 mg/ml.
Series [6] deals with mouse lymphoma cells, L5178Y. The series can be described thus: Mutagenicity in mouse lymphoma cells. The following applies: 2.5–50 mg/ml. It is filed as cell-based.
Source text: as §1

For series [7], the system named is restenosis (iliac artery). The series can be described thus: Prevention of restenosis in rabbits given TTA orally, quantitative angiography after iliac balloon angioplasty. The class given is in vivo, Chinchilla (Chbb:CH) rabbits. The settings on record: for diameter artery (Ds) / dilatation/stenosis (Dr − Ds)/Dr / reference diameter (Dr): TTA 800 mg daily oral. On the procedure: Fourteen Chinchilla (Chbb:CH) rabbits of either sex were randomised either to receive supplement with TTA fatty acids 800 mg daily (mean weight 3.6±0.09 kg) or to placebo (mean weight 3.5±0.47 kg).
The animals were pre-treated with TTA given as oral supplements, mixed with daily food pellets, for three weeks to ensure accumulation of the fatty acid analogues in the tissues.
After premedication with 0.5 ml fentanyl (0.315 mg/ml) and fluanisone (10 mg/ml) (Hypnorm®) intramuscularly, the rabbits were anaesthetised by administering diazepam 4 mg/kg intraperitoneally and maintained by additional 0.3–0.4 ml of a 1:1 mixture of Hypnorm® and diazepam, usually necessary once during the procedure.
After local infiltration of the skin by lignocaine (Xylocaine®) and surgical cut-down, the right carotid artery was cannulated by a 6F sheath. A bolus of 100 U/kg of heparin was administered intraarterially. Before the angioplasty, an angiography was performed in the frontal view by injecting 3 ml of ioxaglate (Hexabrix®) as contrast medium via a Berman® catheter.
An angioplasty balloon catheter (Express®) of 2.5 mm was positioned in the proximal part of each iliac artery and balloon angioplasty was performed with 2 balloon inflations at the same site in each artery, at 8 and 12 atmosphere for 30 seconds each to overstretch the artery. The balloon marker, on the middle of the 20 mm long balloon, was placed over the ilio-sacral joint, thus ensuring that the balloon was positioned at identical sites. Inflation was performed using a pressure manometer (Encore® 26 inflation device, Scimed, Boston Scientific corporation).
A further angiography was performed in the same frontal view as the first angiography to assure artery patency. The carotid artery was ligated and the skin was closed with ligatures. Buprenorfin 0.3 mg (Temgesic®) and penicillin were given subcutaneous once daily for the first days.
(§3) A follow-up angiography was performed in the same frontal view after 10 weeks, following the same procedure as indicated above, by using ioxaglate (Hexabrix®) as contrast medium. The sheath was now inserted in the left carotid artery. Intravascular ultrasound was performed to quantitate wall thickness and lumen diameter. After angiography a laparotomy was performed and the abdominal aorta was cannulated with an 18G infusion-needle. The animals were euthanised by giving overdose pentobarbital intraarterially via the sheath in the left carotid artery.
The frames with maximal opacification from baseline angiographies (before and after dilatation), as well as from the follow-up angiography were stored for subsequent quantitative analysis. Arterial diameter before and after dilatation as well as the balloon to artery ratio were measured. The minimal luminal diameter, reference diameter and stenosis were determined. All measurements were performed with a digital electronic calliper (Sandhill, model EC-1)(12). A balloon angioplasty catheter (Express® 2.5 mm), placed on the abdomen and dilated at 8 atmospheres (rated balloon diameter 2.5 mm) served for calibration.
Acute gain: minimal luminal diameter (MLD) post dilatation minus diameter artery before dilatation. Late loss: MLD post dilatation minus MLD at control angiography. Loss index: late loss divided by acute gain.

Series [8] has as its system human smooth muscle cells (SMC). The series can be described thus: Proliferation of cultured smooth muscle cells (cell counting). It is filed as cell-based. The following applies: 100 μM with BSA, cells counted after 3 and 6 days, FIG. 3. On the procedure: SMC are human smooth muscle cells available from American Type Culture Collection (Type 1999-CRL). The SMC cells were cultured in bottles (75 cm^2) in Ham's F12K medium. 24 hours after inoculation, the fatty acids and BSA in a molar ratio of 1:2.5 were added to the medium, i.e. to a final concentration of palmitic acid and TTA of 100 μM. After 3 and 6 days the cells were trypsinated, and the number of cells determined by using a light microscopy with counting chambers (Leitz Wetzler).

Series [9] in a line: Total plasma homocysteine in rats given TTA. The class given is in vivo. The following applies: Male Wistar rats, 300 mg TTA per kg body weight per day in 10 days. On the procedure: Increased levels of homocysteine, i.e. hyperhomocysteinemia has been proposed to be associated with arterial diseases, and we thus measured the levels of homocysteine in plasma samples from Male Wistar rats given 300 mg TTA per kg body weight per day in 10 days.
Total plasma homocysteine was measured by a fully automated fluorescence assay. 30 μl plasma was reduced by 30 μl NaBH4/DMSO solution (6 mol/L). After 1.5 min 20 μl of the fluorescence reagent monobromobimane (25 mmol/L) in acetonitrile was added and allowed to react for 3 min. 20 μl of the sample was then immediately analysed with HPLC by injection on a strong cation-exchange column, and then by column switching into a cyclohexyl silica column. The SCX column was eluted isocratically and the CH column was eluted with a linear methanol gradient (17–35% in 5 min) in 20 mmol/L formate buffer. The homocysteine was eluted at a retention time of 4.5 min.

Series [10] relates to mitochondrial β-oxidation system. The series can be described thus: Mitochondrial β-oxidation.
Source text: The studies have shown that TTA has properties very similar to natural fatty acids, the main difference being that TTA is not oxidised by the mitochondrial β-oxidation system.
as §2

For series [11], the system named is restenosis (coronary artery, LAD or LCx). The series can be described thus: Prevention of restenosis in mini pigs, local administration of TTA, quantitative angiography and histology. The class given is in vivo. The following applies: minipigs; for Luminal diameter: local TTA 3 x 0.5 ml (0.33 mg/ml). The text has this:
(§4) Various local drug delivery systems have been developed to enable local application of pharmacological agents in conjunction with PTCA. In this study 20 minipigs were randomised to placebo or active treatment with the fatty acid analogue tetradecylthioaceticacid acid (TTA) via a Transport® multiphorous angioplasty balloon catheter. This catheter has a sleeve embracing the balloon and the drug is delivered through a separate lumen connected to the sleeve which has multiple holes.
(§5) Coronary balloon angioplasty injury using an oversized balloon was performed to the LAD or LCx followed by 3 bolus deliveries of 0.5 ml (0.33 mg/ml TTA) of active drug/placebo. Quantitative angiography as indicated in the preceding sections was performed before and after injury, and after 4 weeks follow-up. Subsequently the pigs were sacrificed, perfusion-fixed with glutaraldehyde and the vessels prepared for histology with computer assisted planimetry.

The subject of a further series is restenosis. Kind of series: IVUS (intravascular ultrasound) after balloon injury. It is filed as in vivo, minipigs. On the procedure:
as §3, §4, §5
The ICUS (intracoronary ultrasound) results were consistent with the angiography data.

A short description of series [12]: Hepatic and plasma fatty acid composition after TTA administration to rats. It is filed as in vivo. The following applies: 12 weeks. The text has this: Thus the compound of the present invention modifies the composition of the lipids in various tissues.
Series [13] can be described thus: 28 days toxicity study in dogs (GLP). It is filed as in vivo. The text has this: A 28 days toxicity study in dogs according to GLP guide-lines has been performed by Corning Hazleton (Europe), England. […] Some lipid related parameters were lowered in the animals given high dosages. This is consistent with the pharmacological activity of TTA.
[14] abbreviates: control angiography (follow-up).
[15] abbreviates: moderate doses, within days of treatment.

As for `CCCCCCCCCCCCCCSC[14C](=O)O` [1-^14C-TTA], the “presence of active drug in the coronary arteries” value in series [1] was “confirmed the presence of active drug”.

Turning to `CCCCCCCCCCCCCC[Se]CC(=O)O` [TSA, tetradecylselenioacetic acid], the induction of mutations result in [2] and in [3] was “did not induce mutations” throughout. The “potency in lowering plasma triacylglycerols and cholesterol” value in series [4] is reported as “far more potent”. For the same molecule, the chromosomal aberrations result in series [5] is recorded as “no aberrations were induced”.

As for Tetradecylthioacetic acid [TTA], in series [2], the induction of mutations result was “did not induce mutations”. In addition, the induction of mutations entry in [3] is recorded as “did not induce mutations”. For the same molecule, the mutagenicity result in series [6] is reported as “not mutagenic”. In series [7] (MLD post dilatation minus MLD at control angiography), this molecule had a late loss of 0.76 ± 0.38. Further, the acute gain in series [7] (MLD post dilatation minus diameter artery before dilatation) is recorded as 0.48 ± 0.22 mm. For the same molecule, in [7] (after dilatation), the “diameter artery (Ds)” value came out at 2.36 ± 0.19 mm, the “dilatation/stenosis (Dr − Ds)/Dr” value was −31.2 and the “reference diameter (Dr)” value came out at 1.80 ± 0.17 mm. In addition, in series [7] (before dilatation), the “diameter artery (Ds)” value is on record as 1.91 ± 0.18 mm and the “reference diameter (Dr)” value was 1.91 ± 0.18 mm. In series [7] (setting [14]), the “diameter artery (Ds)” value came out at 1.60 ± 0.26 mm, the “dilatation/stenosis (Dr − Ds)/Dr” value is listed as 23.5 and the “reference diameter (Dr)” value came to 2.07 ± 0.15 mm. Also, the “decrease in artery diameter at follow-up” value in series [7] (follow-up after angioplasty, oral TTA) is “inhibited the decrease in artery diameter”. In addition, the loss index in [7] (late loss divided by acute gain) was found to be 1.53 ± 0.46. For the same molecule, in series [8], the “growth of smooth muscle cells” value is “inhibiting effect”. The “Plasma concentration of homocysteine” value in series [9] came out at 5.4 ± 1.0 µmol/L. The “oxidation by the mitochondrial β-oxidation system” value in series [10] is recorded as “not oxidised”. The same molecule displayed a Luminal diameter in series [11] (after PTCA) of 3.2 mm. Moreover, the Luminal diameter in series [11] (at follow-up) came to 2.2 mm. This molecule also displayed a Luminal diameter in series [11] (before PTCA) of 2.6 mm. In addition, the maximal intimal thickness result in series [11] (treated group with respect to the placebo group) is “unchanged”. Also, in the series with restenosis, the Area site was 0.61 ± 0.152 mm^2, the Max. diameter site came to 2.87 ± 0.408 mm and the Minimal diameter site is reported as 2.76 ± 0.381 mm. In series [12], the “hepatic and plasma content of monounsaturated fatty acids (mainly oleic acid)” value is “nearly doubled”; the “polyunsaturated fatty acids (mainly linoleic acid and DHA)” value is on record as “decreased”. Moreover, the “potency in lowering plasma triacylglycerols and cholesterol” value in [4] was “far more potent”. Moreover, in series [4] (setting [15]), the plasma cholesterol levels result is “decreased” and the plasma triacylglycerol levels entry is recorded as “decreased”. Moreover, the chromosomal aberrations entry in series [5] was “no aberrations were induced”. The body weight result in series [13] (500 mg/kg/day) is reported as “body weight loss”. Also, the lipid related parameters entry in [13] (animals given high dosages) is “lowered”. Further, the evidence of toxicity result in [13] (dose levels of 50 or 500 mg/day/kg) is listed as “no evidence of toxicity”. For the same molecule, the “tolerability of oral administration” value in series [13] (oral, dose levels up to 500 mg/kg/day) was “generally well tolerated”.
